Test [1] has as its target T1, recombinant human LTA4 hydrolase (Homo sapiens, UniProt P09960).
T1 sequence (P09960 1-611): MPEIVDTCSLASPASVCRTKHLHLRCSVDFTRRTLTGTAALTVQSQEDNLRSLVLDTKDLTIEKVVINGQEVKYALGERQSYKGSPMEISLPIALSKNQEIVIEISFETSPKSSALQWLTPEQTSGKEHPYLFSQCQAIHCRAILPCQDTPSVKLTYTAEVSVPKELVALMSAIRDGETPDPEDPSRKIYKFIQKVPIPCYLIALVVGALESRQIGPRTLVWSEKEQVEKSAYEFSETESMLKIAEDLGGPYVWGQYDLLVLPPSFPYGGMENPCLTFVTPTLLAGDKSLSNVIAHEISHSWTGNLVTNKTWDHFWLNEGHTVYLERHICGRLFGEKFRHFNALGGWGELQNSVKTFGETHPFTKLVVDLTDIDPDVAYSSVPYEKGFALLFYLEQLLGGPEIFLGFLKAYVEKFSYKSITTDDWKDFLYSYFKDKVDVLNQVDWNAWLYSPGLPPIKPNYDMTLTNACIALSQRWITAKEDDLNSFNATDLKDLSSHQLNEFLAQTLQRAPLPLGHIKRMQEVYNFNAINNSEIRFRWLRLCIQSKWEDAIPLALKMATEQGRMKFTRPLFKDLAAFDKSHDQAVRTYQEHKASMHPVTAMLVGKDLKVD
The test is described as follows: LTA4 hydrolase homogeneous time resolved fluorescence (HTRF) assay. It counts as biochemical. As to the method:
Compounds of the invention were tested in the LTA4 hydrolase homogeneous time resolved fluorescence (HTRF) assay to determine their ability to inhibit the hydrolysis of LTA4 to LTB4. The assay analyzes the amount of LTB4 produced.
LTA4 HTRF assay is a two-step assay involving enzymatic conversion of LTA4 to LTB4, and subsequent quantification of LTB4, product with HTRF assay.
The enzymatic conversion of LTA4 to LTB4 was performed in 384-well plates at ambient temperature in a reaction mixture containing 50 mM HEPES (pH 7.5), 0.5% BSA (fatty acid free), 18 nM recombinant human LTA4 hydrolase, 150 nM LTA4, 1% DMSO in the absence or presence of a compound of the invention. Reaction was stopped after 10 minutes incubation by diluting the incubation mixture 10-fold in 50 mM phosphate, 0.1% casein buffer (pH 7.0).
LTB4 formed was quantified with the HTRF assay in which free LTB4 competes with LTB4-XL665 conjugate (acceptor) for anti-LTB4 monoclonal antibody labeled with Europium cryptate (donor), thereby inhibiting the fluorescence energy transfer.
The LTB4 HTRF 384-well assay was carried out by incubating LTB4 samples or standards with LTB4-XL665 conjugate (7.5 ng/well) and anti-LTB4 monoclonal antibody-Europium cryptate conjugate (0.5 ng/well) in 50 mM phosphate, 0.4 M KF and 0.1% casein, buffer (pH 7.0) for two hours at ambient temperature. Plates were read in a RubyStar plate reader (BmG Labtechnologies Inc., NC) simultaneously at 620 nm and 665 nm to obtain signal ratios of 665 nm/620 nm. Results of energy transfer were expressed as delta F (%) which equaled [(signal ratio of sample-signal ratio of negative control)/(signal ratio of negative control)]×100%. Negative controls were control samples without LTB4 or LTB4-XL665.
Sample LTB4 concentrations were calculated from the LTB4 standard curve using the 4-parameter fit equation. For determination IC50 values for a particular compound of the invention, eight serially diluted compound concentrations (at 1:3.16 dilution) were used in this assay. Controls without a compound of the invention or with a reference compound were run parallel in the same assay plate.
Background: In TR-FRET formats the signal depends on donor and acceptor labels being close together.

Test [2] concerns LTB4 production in human whole blood. The test is described as follows: Whole blood assay (LTB4 release upon calcium ionophore, ELISA), human. It counts as cell-based. The following applies: production of LTB4 in whole blood, calcium ionophore stimulation. The protocol:
Compounds of the invention were tested for their ability as inhibitors of LTA4 hydrolase in a whole blood assay using human, mouse, rat or dog whole blood in a manner similar to that described in Penning, T. D. et al., J. Med. Chem. (2000), 43(4): 721-735. In this assay, compounds were tested for their ability to inhibit LTB4 release upon stimulation with calcium ionophore. The LTB4 levels in supernatants were measured by ELISA.
(ELISA stands for enzyme-linked immunosorbent assay.)

The target of test [3] is T2, LTA4 hydrolase peptidase activity (Homo sapiens, UniProt P09960).
T2 sequence (P09960 1-611): T1 sequence (P09960 1-611)
The test is described as follows: Peptidase assay (hydrolysis of L-alanine-p-nitroanilide). The following applies: 29 nM enzyme, 1 mM L-alanine-p-nitroanilide, 1 hour. It counts as biochemical. The protocol:
Inhibition of peptidase activity was measured for the compounds of the invention by using methods similar to those described in Kull, F. et al., The Journal of Biological Chemistry 1999, 274 (49): 34683-34690.
In brief, the enzyme (29 nM) was incubated with L-alanine-p-nitroanilide (1 mM) in 50 mM HEPES (pH 7.5), 100 mM KCL, 1% DMSO in the absence or presence of a compound of the invention for 1 hour at ambient temperature. Reaction was terminated by addition of acetic acid (1%). Formation of colored nitro-aniline was measured by the increase in absorbance at 405 nm in a Victor 2 plate reader (Wallac). Spontaneous hydrolysis of the substrate was corrected for by subtracting the absorbance of control incubations without enzyme.

Where [4] appears, read: inhibition of LTA4 to LTB4 hydrolysis, 18 nM enzyme, 150 nM LTA4, 10 minutes, read-out: Hydrolase IC50.

Like-named read-outs stand apart in the source and are kept apart here.

Consider `NCc1ccc(OCc2ccc(-c3ccccc3)cc2)cc1` [Example 1, 1-(4-phenylphenyl-1-methoxy)-4-aminomethylbenzene], for which, in test [1] (setting [4]), the half-inhibitory concentration (IC50) stood at 300 nM.
In the case of `NCCc1ccc(OCc2ccc(-c3ccccc3)cc2)cc1` [Example 2, (4-phenylphenyl-1-methoxy)-4-phenylethylamine], the IC50 in test [1] was found to be 41 nM; in test [2], 47 nM.
With `NCCc1ccc(Oc2ccc(Cc3ccccc3)cc2)cc1` [Example 3, 4-benzylphenoxy-4-phenylethylamine], the results for the IC50 in test [1] and in test [2] were 44 nM and 89 nM, respectively.
On to `CN(CCOc1ccc(Cc2ccccc2)cc1)Cc1ccccc1Oc1ccc(C(=O)O)cc1` [Example 4, [N-2-(4-benzylphenoxy)ethyl]-N-methyl-(2-aminomethylphenoxy)-4-benzoic acid], for which the figures for the IC50 in test [1] (setting [4]), in test [2] and in test [3] were 100 nM, 370 nM and 32 nM, respectively.
In the case of `NCc1ccc(Oc2ccc(Cc3ccccc3)cc2)cc1` [Example 5, 4-(4-benzylphenoxy)benzylamine], the IC50 was 270 nM in test [1] (setting [4]) and 150 nM in test [2].
With `CN(CCOc1ccc(Cc2ccccc2)cc1)Cc1ccc(C(=O)O)cc1` [Example 6, [N-2-(4-benzylphenoxy)ethyl]-N-methyl-aminomethyl-4-benzoic acid], the IC50 in test [1] (setting [4]) stood at 21 nM; in test [2], 310 nM.
With `NC(Cc1ccc(Oc2ccc(Cc3ccccc3)cc2)cc1)C(=O)O` (stereo not shown) [Example 7, 3-[4-(4-benzylphenoxy)phenyl]-2-aminopropanoic acid], the IC50 worked out at 84 nM in test [1] (setting [4]) and 880 nM in test [2].
For the compound `COC(=O)C(N)Cc1ccc(Oc2ccc(Cc3ccccc3)cc2)cc1` (stereo not shown) [Example 8, methyl 3-[4-(4-benzylphenoxy)phenyl]-2-aminopropanoate], the IC50 came out at 120 nM in test [1] (setting [4]) and 790 nM in test [2].
In the same order, the values of `CCOC(=O)C(N)Cc1ccc(Oc2ccc(Cc3ccccc3)cc2)cc1` (stereo not shown) [Example 9, ethyl 3-[4-(4-benzylphenoxy)phenyl]-2-aminopropanoate] are 130 nM and 350 nM.
Consider `NC(CO)Cc1ccc(Oc2ccc(Cc3ccccc3)cc2)cc1` (stereo not shown) [Example 10, 3-[4-(4-benzylphenoxy)phenyl]-2-aminopropanol], for which the results for the 50% inhibitory concentration (IC50) in test [1] (setting [4]) and in test [2] were 260 nM and 910 nM, respectively.
As to `NCc1cccnc1NCCOc1ccc(Cc2ccccc2)cc1` [Example 11, 2-(4-benzylphenoxy)ethylamino-3-aminomethylpyridine], the IC50 in test [1] (setting [4]) is 300 nM; in test [3], 180 nM.
For `CN(CCOc1ccc(Cc2ccccc2)cc1)Cc1ccccc1Oc1cccc(C(=O)O)c1` [Example 12], the IC50 turned out to be 15 nM in test [1] (setting [4]), 150 nM in test [2] and 23 nM in test [3].

For orientation: IC50 means the concentration needed to halve the response being measured.

The values are drawn from patent US10385007B2, “Monamine and monoamine derivatives as inhibitors of leukotriene A4 hydrolase” (Celtaxsys, Inc., priority 2016, dated 2019).
